Common to all, as to format: biochemical
Assay [1] deals with SRC (Homo sapiens, UniProt P12931). As to the kind of experiment: Inhibition of a panel of kinases, in vitro HotSpot kinase assay: SRC. Particulars: D-compounds panel data; 1 μM ATP. As for the experimental part:
(§1) The degree of inhibition of a panel of kinases is determined using the in vitro HotSpot kinase assay (purified enzymes, ^33P-ATP, an appropriate substrate and 1 μM ATP).

In assay [2] the target is T1, ITK (Homo sapiens, UniProt Q08881).
T1 sequence (Q08881 1-620): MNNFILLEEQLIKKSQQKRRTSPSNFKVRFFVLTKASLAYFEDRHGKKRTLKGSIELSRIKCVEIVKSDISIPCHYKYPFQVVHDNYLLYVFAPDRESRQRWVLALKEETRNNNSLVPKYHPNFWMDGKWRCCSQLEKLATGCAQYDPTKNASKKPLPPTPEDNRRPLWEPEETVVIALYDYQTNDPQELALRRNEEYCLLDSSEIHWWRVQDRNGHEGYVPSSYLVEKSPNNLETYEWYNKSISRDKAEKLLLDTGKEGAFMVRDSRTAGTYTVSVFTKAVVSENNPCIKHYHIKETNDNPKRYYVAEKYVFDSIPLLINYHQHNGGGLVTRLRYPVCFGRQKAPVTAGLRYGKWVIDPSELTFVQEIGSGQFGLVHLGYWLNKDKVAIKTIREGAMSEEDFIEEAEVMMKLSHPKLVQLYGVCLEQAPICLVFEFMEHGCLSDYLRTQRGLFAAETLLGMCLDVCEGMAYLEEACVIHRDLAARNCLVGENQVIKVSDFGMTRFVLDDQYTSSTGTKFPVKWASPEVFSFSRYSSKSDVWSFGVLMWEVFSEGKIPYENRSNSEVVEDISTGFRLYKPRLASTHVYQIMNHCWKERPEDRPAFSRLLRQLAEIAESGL
As to the kind of experiment: Inhibition of a panel of kinases, in vitro HotSpot kinase assay: ITK. Particulars: D-compounds panel data; 1 μM ATP. The protocol: as §1

In assay [3] the target is LCK (Homo sapiens, UniProt P06239). As to the kind of experiment: Inhibition of a panel of kinases, in vitro HotSpot kinase assay: LCK. Particulars: D-compounds panel data; 1 μM ATP; read-out: IC50 LCK.
In assay [4] the target is T2, BTK-WT (Homo sapiens, UniProt Q06187).
T2 construct: purified from insect cells as a full-length construct containing an N-terminal 6X-His tag; His6 (N); made in house; host or cells: insect cells (baculovirus Sf21 in Method B)
As to the kind of experiment: Btk in vitro inhibitory activity (one of Method A TR-FRET, Method B electrophoretic mobility shift, Method C radiometric filter binding). Particulars: D-compounds panel data; read-out: IC50 BTK-WT. Background: In EMSA bound probe runs differently from free probe, usually more slowly.

In assay [5] the target is T3, TEC (Homo sapiens, UniProt P42680).
T3 sequence (P42680 1-631): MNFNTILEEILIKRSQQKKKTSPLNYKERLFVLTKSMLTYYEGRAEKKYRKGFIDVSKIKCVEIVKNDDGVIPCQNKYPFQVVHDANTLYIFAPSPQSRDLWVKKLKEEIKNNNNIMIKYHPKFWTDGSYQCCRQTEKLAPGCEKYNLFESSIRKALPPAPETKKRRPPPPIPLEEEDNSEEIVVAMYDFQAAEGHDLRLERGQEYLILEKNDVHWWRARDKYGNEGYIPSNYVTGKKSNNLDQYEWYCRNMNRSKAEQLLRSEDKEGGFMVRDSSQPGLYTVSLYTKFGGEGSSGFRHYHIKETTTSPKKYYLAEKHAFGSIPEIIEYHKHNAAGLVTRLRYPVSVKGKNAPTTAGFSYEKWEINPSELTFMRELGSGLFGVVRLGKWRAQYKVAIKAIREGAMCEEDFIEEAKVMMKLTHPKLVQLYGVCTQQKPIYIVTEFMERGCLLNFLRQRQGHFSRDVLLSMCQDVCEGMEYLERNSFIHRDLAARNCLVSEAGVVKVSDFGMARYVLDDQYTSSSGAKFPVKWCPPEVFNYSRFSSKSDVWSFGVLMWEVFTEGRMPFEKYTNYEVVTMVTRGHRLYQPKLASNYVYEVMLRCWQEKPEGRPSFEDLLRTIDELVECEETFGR
As to the kind of experiment: Inhibition of a panel of kinases, in vitro HotSpot kinase assay: TEC. Particulars: D-compounds panel data; 1 μM ATP. As for the experimental part:
as §1

What is called IC50 is the concentration needed to halve the response being measured.

Bounds are passed on as bounds.

Sequence of SRC (P12931 whole entry): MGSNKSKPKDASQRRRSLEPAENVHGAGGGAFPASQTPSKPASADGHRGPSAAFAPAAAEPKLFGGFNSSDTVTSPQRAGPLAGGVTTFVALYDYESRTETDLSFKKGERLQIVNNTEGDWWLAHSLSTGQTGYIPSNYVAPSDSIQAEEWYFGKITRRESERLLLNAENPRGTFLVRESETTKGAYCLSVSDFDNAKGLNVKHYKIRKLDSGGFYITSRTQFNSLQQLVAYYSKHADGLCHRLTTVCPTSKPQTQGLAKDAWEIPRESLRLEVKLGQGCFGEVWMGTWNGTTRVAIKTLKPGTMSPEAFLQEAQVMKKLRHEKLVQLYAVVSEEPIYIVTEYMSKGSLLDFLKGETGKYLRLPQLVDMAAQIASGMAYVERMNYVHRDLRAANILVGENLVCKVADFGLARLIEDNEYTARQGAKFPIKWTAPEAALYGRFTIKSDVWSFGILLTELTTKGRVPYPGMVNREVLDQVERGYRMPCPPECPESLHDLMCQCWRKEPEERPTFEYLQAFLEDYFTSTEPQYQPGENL
T2 sequence (Q06187 whole entry): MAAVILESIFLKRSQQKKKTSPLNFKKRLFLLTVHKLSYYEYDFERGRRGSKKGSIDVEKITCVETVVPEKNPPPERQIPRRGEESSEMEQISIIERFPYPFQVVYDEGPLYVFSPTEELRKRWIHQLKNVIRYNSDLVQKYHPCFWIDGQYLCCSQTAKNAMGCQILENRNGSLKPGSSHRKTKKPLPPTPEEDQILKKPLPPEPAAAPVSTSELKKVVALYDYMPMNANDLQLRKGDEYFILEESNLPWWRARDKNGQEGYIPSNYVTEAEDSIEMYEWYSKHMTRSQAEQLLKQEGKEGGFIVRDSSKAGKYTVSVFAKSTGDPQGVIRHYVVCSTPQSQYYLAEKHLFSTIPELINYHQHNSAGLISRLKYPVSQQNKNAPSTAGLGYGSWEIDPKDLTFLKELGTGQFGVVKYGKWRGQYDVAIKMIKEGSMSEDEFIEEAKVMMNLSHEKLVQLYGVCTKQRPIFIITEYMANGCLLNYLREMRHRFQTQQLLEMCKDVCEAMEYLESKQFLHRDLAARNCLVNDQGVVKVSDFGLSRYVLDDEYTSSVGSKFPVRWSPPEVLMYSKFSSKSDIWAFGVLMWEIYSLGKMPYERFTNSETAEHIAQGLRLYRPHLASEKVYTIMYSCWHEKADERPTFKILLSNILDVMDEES
Sequence of LCK (P06239 whole entry): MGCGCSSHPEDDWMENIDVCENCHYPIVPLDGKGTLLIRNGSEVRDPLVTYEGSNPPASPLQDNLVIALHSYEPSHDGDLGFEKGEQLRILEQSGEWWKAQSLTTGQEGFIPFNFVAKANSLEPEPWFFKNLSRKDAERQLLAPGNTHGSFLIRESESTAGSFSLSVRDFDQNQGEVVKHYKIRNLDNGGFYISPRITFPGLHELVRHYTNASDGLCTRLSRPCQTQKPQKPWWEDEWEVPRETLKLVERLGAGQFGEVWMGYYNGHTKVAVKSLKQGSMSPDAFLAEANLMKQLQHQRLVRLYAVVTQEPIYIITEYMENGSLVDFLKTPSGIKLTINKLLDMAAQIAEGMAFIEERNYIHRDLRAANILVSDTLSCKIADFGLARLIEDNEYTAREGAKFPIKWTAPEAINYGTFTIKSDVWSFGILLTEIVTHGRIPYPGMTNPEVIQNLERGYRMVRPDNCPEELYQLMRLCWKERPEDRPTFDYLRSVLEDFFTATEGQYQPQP

With `C[C@@H]1[C@H](NC(=O)c2ccc(C3CC3)cc2Cl)CCCN1c1cnc(C(N)=O)c(Nc2cnn(C)c2)n1` [Example D-20, 5-[(2R,3R)-3-(2-chloro-4-cyclopropylbenzamido)-2-methylpiperidin-1-yl]-3-[(1-methyl-1H-pyrazol-4-yl)amino]pyrazine-2-carboxamide], the IC50 in assay [1] is 0.1 to 1 µM; in assay [2] it was 1 to 10 µM; in assay [3], 0.1 to 1 µM; in assay [4], at most 0.01 µM; in assay [5], 0.01 to 0.1 µM.
For the molecule `C[C@@H]1[C@H](NC(=O)c2cc(C(C)(C)C)on2)CCCN1c1cnc(C(N)=O)c(Nc2cnn(C)c2)n1` [Example D-247, 5-[(2R,3R)-3-(5-tert-butyl-1,2-oxazole-3-amido)-2-methylpiperidin-1-yl]-3-[(1-methyl-1H-pyrazol-4-yl)amino]pyrazine-2-carboxamide], the IC50 in assay [1] is 0.1 to 1 µM; in assay [2], 0.1 to 1 µM; in assay [3], 0.1 to 1 µM; in assay [4] it was at most 0.01 µM; in assay [5], 0.01 to 0.1 µM.
On to `C[C@@H]1[C@H](NC(=O)N(C)C2CC2)CCCN1c1cnc(C(N)=O)c(Nc2cnn(C)c2)n1` [Example D-314, 5-[(2R,3R)-3-{[cyclopropyl(methyl)carbamoyl]amino}-2-methylpiperidin-1-yl]-3-[(1-methyl-1H-pyrazol-4-yl)amino]pyrazine-2-carboxamide], for which the IC50 in assay [1] is 0.01 to 0.1 µM; in assay [2], 0.1 to 1 µM; in assay [3], 0.1 to 1 µM; in assay [4] it was at most 0.01 µM; in assay [5] it was 0.01 to 0.1 µM.
With `C[C@@H]1[C@H](NC(=O)c2ccc(C3CC3)cc2)CCCN1c1cnc(C(N)=O)c(Nc2cnn(C3CCC(F)(F)CC3)c2)n1` [Example D-307, 5-[(2R,3R)-3-(4-cyclopropylbenzamido)-2-methylpiperidin-1-yl]-3-{[1-(4,4-difluorocyclohexyl)-1H-pyrazol-4-yl]amino}pyrazine-2-carboxamide], the IC50 is 0.1 to 1 µM in assay [1]; 1 to 10 µM in assay [2]; 0.1 to 1 µM in assay [3]; at most 0.01 µM in assay [4]; 0.01 to 0.1 µM in assay [5].
Regarding `C[C@@H]1[C@H](NC(=O)c2ccc3ncsc3c2)CCCN1c1cnc(C(N)=O)c(Nc2cnn(C)c2)n1` [Example D-243, N-[(2R,3R)-1-{5-carbamoyl-6-[(1-methyl-1H-pyrazol-4-yl)amino]pyrazin-2-yl}-2-methylpiperidin-3-yl]-1,3-benzothiazole-6-carboxamide], the IC50 in assay [1] is 0.01 to 0.1 µM; in assay [2], 0.1 to 1 µM; in assay [3], 0.01 to 0.1 µM; in assay [4], at most 0.01 µM; in assay [5] it was at most 0.01 µM.
For `C[C@@H]1[C@H](NC(=O)c2ccc(C3CC3)nc2)CCCN1c1cnc(C(N)=O)c(Nc2ccc(OC3CCN(C)CC3)cc2)n1` [Example D-294, 5-[(2R,3R)-3-(6-cyclopropylpyridine-3-amido)-2-methylpiperidin-1-yl]-3-({4-[(1-methylpiperidin-4-yl)oxy]phenyl}amino)pyrazine-2-carboxamide], the IC50 in assay [1] was 0.01 to 0.1 µM; in assay [2] it was 0.01 to 0.1 µM; in assay [3], 0.01 to 0.1 µM; in assay [4] it was at most 0.01 µM; in assay [5], at most 0.01 µM.
Take `C[C@@H]1[C@H](NC(=O)c2ccc(C3CC3)cc2)CCCN1c1cnc(C(N)=O)c(NCC2=CCN(C)CC2)n1` [Example D-300, 5-[(2R,3R)-3-(4-cyclopropylbenzamido)-2-methylpiperidin-1-yl]-3-{[(1-methyl-1,2,3,6-tetrahydropyridin-4-yl)methyl]amino}pyrazine-2-carboxamide]: the IC50 in assay [1], in assay [2], in assay [3], in assay [4] and in assay [5] was above 10 µM each time.
As to `C[C@@H]1[C@H](NC(=O)c2ccc(C3CC3)cc2)CCCN1c1cnc(C(N)=O)c(Nc2cnn(CCO)c2)n1` [Example D-281, 5-[(2R,3R)-3-(4-cyclopropylbenzamido)-2-methylpiperidin-1-yl]-3-{[I-(2-hydroxyethyl)-1H-pyrazol-4-yl]amino}pyrazine-2-carboxamide], the IC50 is 0.1 to 1 µM in assay [1]; 0.1 to 1 µM in assay [2]; 0.1 to 1 µM in assay [3]; at most 0.01 µM in assay [4]; 0.01 to 0.1 µM in assay [5].
As for `C[C@@H]1[C@H](NC(=O)c2ccc(C(C)(C)C#N)cc2)CCCN1c1cnc(C(N)=O)c(Nc2ccc(OC3CCN(C)CC3)cc2)n1` [Example D-292, 5-[(2R,3R)-3-[4-(1-cyano-1-methylethyl)benzamido]-2-methylpiperidin-1-yl]-3-({4-[(1-methylpiperidin-4-yl)oxy]phenyl}amino)pyrazine-2-carboxamide], the IC50 was 0.01 to 0.1 µM in assay [1]; 0.01 to 0.1 µM in assay [2]; 0.01 to 0.1 µM in assay [3]; at most 0.01 µM in assay [4]; at most 0.01 µM in assay [5].
Regarding `C[C@@H]1[C@H](NC(=O)c2ccc(C3CC3)cn2)CCCN1c1cnc(C(N)=O)c(Nc2cnn(C)c2)n1` [Example D-21, 5-[(2R,3R)-3-(5-cyclopropylpyridine-2-amido)-2-methylpiperidin-1-yl]-3-[(1-methyl-1H-pyrazol-4-yl)amino]pyrazine-2-carboxamide], the IC50 was 0.01 to 0.1 µM in assay [1]; 0.1 to 1 µM in assay [2]; 0.1 to 1 µM in assay [3]; at most 0.01 µM in assay [4]; 0.01 to 0.1 µM in assay [5].
